Reference: patent publication US20160123960A1, “METHOD FOR PREPARING THREE-DIMENSIONAL, ORGANOTYPIC CELL CULTURES AND USES THEREOF” (priority 2013, published 2016)

Assays:
H460 OTOCs = test: 18F-FDG uptake in OTOCs by Cerenkov Luminescence Imaging, H460; format: cell-based; conditions: 700 ng/ml, 24 hr time point, CLI
Source text: (§1) The objective of this study was to monitor radio-labeled compound uptake in vitro using the OTOC system described herein. Three tumor cell lines (HT-29 (colon tumor cell line), HCT-116 (colon tumor cell line), and H460 (lung tumor cell line) were used to generate OTOCs in order to test the effects of FDG uptake after drug treatment with MLN9708, a proteasome inhibitor. OTOCs for each cell line were transferred to 6 well plates, respectively, with 6 OTOCs/well.
(§2) An in vitro dosage of MLN9708 was extrapolated from historical in vivo PK studies for this compound. A 700 ng/ml concentration was decided upon and used in the OTOC studies described herein (derived from the mean tumor concentration achievable with a standard dose of MLN9708 (11 mg/kg PK dose, IV)).
(§3) The imaging modality Cerenkov Luminescence Imaging (CLI, Robertson et al. (2009) Phys. Med. Biol. 54:N355-N365) was used to monitor the FDG response in vitro.
(§4) The cell line HT-29 (KRAS WT) is known to be responsive to MLN9708 in vivo (t/c <0.3), while HCT-116 and H460 (both KRAS mutants) have shown resistance to proteasome inhibition (data not shown). OTOCs were imaged via CLI at 24, 48, 72, 96 hours post compound administration.

HT-29 (KRAS WT) = test: In vivo response of HT-29 (t/c); conditions: HT-29 in vivo
HCT-116 OTOCs = test: 18F-FDG uptake in OTOCs by Cerenkov Luminescence Imaging, HCT-116; format: cell-based; conditions: 700 ng/ml, 24 hr time point, CLI
Source text: as §1, §2, §3, §4

HT-29 OTOCs = test: 18F-FDG uptake in OTOCs by Cerenkov Luminescence Imaging, HT-29; format: cell-based; conditions: 700 ng/ml, 24 hr time point, CLI
Source text: as §1, §2, §3, §4

H1048 μOTOCs = test: 18F-FDG uptake in μOTOCs by Cerenkov Luminescence Imaging, H1048; format: cell-based; conditions: 250 μM, 24 hrs, CLI
Experimental: (§5) Cobalt chloride (CoCl2) is known to cause an increase in 18F-FDG uptake in cells treated /over 24 hours. As such, 250 μM CoCl2 was used to test whether μTOCs could be imaged.
(§6) μOTOCs of H1048 (small cell lung carcinoma) and T47D (mammary gland; ductal carcinoma) cells were generated using the method described in Example 1.
(§7) On Day 3 post seeding/creation of the OTOCs (i.e, after forming the μOTOCs in oil then transferring to T75 flask for 3 days of culture), the μOTOCs were transferred one at a time via pipette into a 96 well plate (1 μOTOC/well). 250 μM CoCl2 was added to each well. Cerenkov Luminescence Imaging was used to monitor the FDG response in vitro.

T47D μOTOCs = test: 18F-FDG uptake in μOTOCs by Cerenkov Luminescence Imaging, T47D; format: cell-based; conditions: 250 μM, 24 hrs, CLI
Experimental: as §5, §6, §7

[1] = tested on: HCT-116 (HCT-116-Luc) OTOCs; conditions: repeated experiment, newly generated HCT-116 OTOCs and InSphero spheroids
Experimental: 24 OTOCs were removed and placed in a 6-well plate, 4 OTOCs/well on day 3 post OTOC seeding/creation.
At 4 days post drug administration all OTOC's were collected for viability measurement to look at growth kinetics and drug resistance to STP.
Each OTOC was placed in a glass test tube with several glass beads. Approximately 800 of PBS was added to test tube and the tube was vortexed for 2-3 min to disrupt the OTOC. After vortexing each test tube was placed on ice until sampling. A black 96 well plate was used for the samples. For each lane 100 μl of the OTOC solution was placed in each well (8 wells/800 (total)/OTOC) until all OTOCs samples were completed. 100 μl of Celltiter glow was added to each well and the plates were rested for 10 min before reading. IVIS Spectrum was run on Auto exposure for each plate and the Living Image analysis program was used to determine Radiance/per well. Lanes were added up and group average and error was determined.
The same conditions that were use in the previous InSphero experiment (in regards to dose and timing) were used in this experiment.

HCT-116 spheroids = test: InSphero assay (hanging drop spheroids), HCT-116; conditions: Homo sapiens
Source text: This experiment that was undertaken was to determine if there was an increase in the resistance of known drug in comparison of the spheroid culture to OTOC format. The same conditions that were use in the previous InSphero experiment (in regards to dose and timing) were used in this experiment.

CC(C)C[C@H](NC(=O)CNC(=O)c1cc(Cl)ccc1Cl)B1OC(=O)C(CC(=O)O)(CC(=O)O)O1 [MLN9708]
FDG signal change from control (H460 OTOCs): -10% | t/c (HT-29 (KRAS WT)): < 0.3 | FDG uptake response (HCT-116 OTOCs): < 10% | increased FDG uptake (HT-29 OTOCs): 48%

[Cl][Co][Cl] [CoCl2, Cobalt chloride]
increase in 18F-FDG uptake (H1048 μOTOCs): 22.6% | increase in FDG uptake (T47D μOTOCs): 33.7%

CN[C@@H]1C[C@H]2O[C@@](C)([C@@H]1OC)n1c3ccccc3c3c4c(c5c6ccccc6n2c5c31)C(=O)NC4 [Staurosporine]
greater resistance in OTOCs assay as compared to InSphero assay [1]: 1800 × | IC50 (HCT-116 spheroids): 37 nM
